Test results reported in patent publication US20230055713A1, “COMPOSITION FOR STRENGTHENING SKIN BARRIER OR MOISTURIZING SKIN COMPRISING TILIANIN” (COSMAX NBT, INC., priority 2021, published 2023).

Assays:
Assay type in all cases: in vivo
[1] = test system: UVB-irradiated hairless mice; experiment: Skin moisture content (Corneometer) on the dorsal skin of UVB-irradiated hairless mice; conditions: T10 group: 10 mg/kg/week oral, 12 weeks
Description: (§1) Five-week-old female hairless mice (SKFI-1) were purchased from Orient Bio (Seongnam, Korea) as experimental animals. Diets of feed and water were freely given, and the animals were bred at the Yonsei Laboratory Animal Research Center (YLARC, Seoul, Korea) under conditions of 25° C. and 50 to 60% humidity for 12 hours. The hairless mice were randomly assigned to the following five groups: (i) a control group, (ii) a UVB-irradiated group (UVB), (iii) a UVB+100 mg/kg/day ARE-administered group (ARE100), (iv) a UVB+250 mg/Kg/day ARE-administered group (ARE250) and (v) UVB+10 mg/kg/week tilianin-administered group (T10). After one week of acclimatization, oral administrations of ARE and tilianin were performed daily for 12 weeks. […]
(§2) Before anesthetizing the hairless mice, the moisture content and the degree of transepidermal water loss (TEWL) were measured on the dorsal section of the hairless mice. Moisture content was measured using CORNEOMETER® 825 (CK Electronics GmbH) at a pressure of 1.1 to 1.5 N after contacting a probe to the skin surface. The TEWL which represents the amount of the evaporation of transepidermal water in the process of damage and recovery of a skin barrier was measured under conditions of 20 to 25° C. and 40 to 60% humidity using TEWAMETER® TM300 (CK Electronics GmbH) equipped with MULTI PROBE ADAPTER® MPA5 (CK Electronics GmbH).

HAS1 = HAS1 mRNA expression in skin tissue (RT-PCR) of UVB-irradiated hairless mice; conditions: oral administration, 12 weeks, compared to the UVB-treated group
Description: as §1, with “weeks. In this case, the hairless mice belonging to the CON group and the UVB groups were orally administered with saline instead of the samples. The hairless mice of the remaining groups except the CON group were irradiated with UVB, and the UVB irradiation was carried out using UV crosslinker CL-1000M (UVP) toward the back 3 times per week.” for “weeks.”
(§3) Specifically, mRNA was isolated from the skin tissues of each group in Example 2-1 using RNAISO™ Plus (Takara). The mRNA was quantified using the NANODROP™ 1000 spectrophotometer (Thermo Fisher Scientific Inc.). […]

HAS3 = HAS3 mRNA expression in skin tissue (RT-PCR) of UVB-irradiated hairless mice; conditions: oral administration, 12 weeks, compared to the UVB-treated group
Description: as §1, with “weeks. In this case, the hairless mice belonging to the CON group and the UVB groups were orally administered with saline instead of the samples. The hairless mice of the remaining groups except the CON group were irradiated with UVB, and the UVB irradiation was carried out using UV crosslinker CL-1000M (UVP) toward the back 3 times per week.” for “weeks.”
as §3

HAS2 = HAS2 mRNA expression in skin tissue (RT-PCR) of UVB-irradiated hairless mice; conditions: oral administration, 12 weeks, compared to the UVB-treated group
Description: as §1, with “weeks. In this case, the hairless mice belonging to the CON group and the UVB groups were orally administered with saline instead of the samples. The hairless mice of the remaining groups except the CON group were irradiated with UVB, and the UVB irradiation was carried out using UV crosslinker CL-1000M (UVP) toward the back 3 times per week.” for “weeks.”
as §3

hyaluronic acid = experiment: Hyaluronic acid concentration in skin homogenate (ELISA) of UVB-irradiated hairless mice; conditions: UVB+T10 group: 10 mg/kg/week oral, 12 weeks
Description: as §1, with “weeks. In this case, the hairless mice belonging to the CON group and the UVB groups were orally administered with saline instead of the samples.” for “weeks.”
Specifically, the skin tissues of the hairless mice of each group in Example 2-1 were homogenized with NP40 lysis buffer (Elpis Biotech, Daejeon, Korea). The concentration of hyaluronic acid in the homogenate was determined using the hyaluronic acid quantikine ELISA Kit (R&D Systems, Minneapolis, Minn., USA) according to the manufacturer's protocol. Absorbance was read at 450 nm using the VERSAMAX™ variable microplate reader (Molecular Devices, Inc., Sunnyvale, Calif., USA).

[2] = test system: UVB-irradiated hairless mice; experiment: Transepidermal water loss (TEWL, Tewameter) on the dorsal skin of UVB-irradiated hairless mice; conditions: ARE 100/250 mg/kg/day or tilianin 10 mg/kg/week oral, 12 weeks, vs UVB group
Description: as §1, §2

Structure (SMILES): COc1ccc(-c2cc(=O)c3c(O)cc(O[C@@H]4O[C@H](CO)[C@@H](O)[C@H](O)[C@H]4O)cc3o2)cc1 [tilianin]
- moisture content in the skin [1]: restored to normal levels
- mRNA expression level of HAS1 (HAS1): significantly increased
- mRNA expression level of HAS3 (HAS3): significantly increased
- mRNA expression level of HAS2 (HAS2): significantly increased
- content of hyaluronic acid, increase compared to the UVB-treated group (hyaluronic acid): 42.26%
- TEWL (transepidermal water loss) [2]: decreased to a significant level
